In US6355410B1, “Method of reducing cell proliferation by inhibiting the Na+/H+ exchanger and inducing apoptosis” (priority 1998, dated 2002):

What was measured:
[1] = system: normal peripheral blood (PB) cells; test: Proportion of cells in S-phase (propidium iodide) of peripheral blood incubated with phorbol ester; assay type: cell-based, human; settings: untreated PB 1.19%±0.34%
Procedure: (§1) The pHi and the percentage of cells in S-phase of the cell cycle were simultaneously determined in aliquots of the same sample, using propidium iodide labeling. Prior to analysis, peripheral blood was also incubated with phorbol ester to activate the NHE-1. […] Furthermore, there was a direct correlation between pHi and proportion of cells in S-phase in both normal and neoplastic haemopoietic cells of various origins (FIG. 4). Thus, intracellular alkalinisation is associated with an increased proliferation and possibly transformation of haemopoietic cells. We hypothesized that unregulated proliferation of leukaemic cells might, at least in part, be due to suppression of normal apoptotic mechanisms. In this case, inhibitors of the NHE-1 would be expected to induce apoptosis in leukaemic cells, and we therefore examined the effects of NHE-1 inhibitors upon such cells.
Normal PB cells were incubated for 5 min with 10^−6 M phorbol-12-myristate-13-acetate (PMA, Sigma Chemical Company, St. Louis, Mo.) to non-specifically activate the NHE-1. […]
The proportion of cells in S-phase of the cell cycle was determined using the propidium iodide technique using the CycleTEST Plus DNA reagent kit (Becton-Dickinson, San Jose, Calif.). Data were acquired by flow cytometry, and analyzed using the Modfit LT software program (Verity Software House Inc).

[2] = system: normal peripheral blood (PB) cells; test: Intracellular pH (SNARF, flow cytometry) of peripheral blood incubated with phorbol ester; assay type: cell-based, human; settings: PB incubated with phorbol ester (10^-6 M PMA, 5 min); unstimulated PB 7.03±0.04
Procedure: as §1, with “In this case, inhibitors of the NHE-1 would be expected to induce apoptosis in leukaemic cells, and we therefore examined the effects of NHE-1 inhibitors upon such cells.” left out
(§2) Measurement of pHi for hemopoietic cells has been described in detail elsewhere (8). Briefly, intracellular pH was measured by both flow cytometry and FRIM by incubating cells with carboxy SemiNaphthoRhodaFluor-1 acetoxymethyl ester, acetate (carboxy SNARF-1 AM, Molecular Probes, Eugene, Oreg.) for 15 min at room temperature. […] Flow cytometric results were analyzed using WinList Software (Verity Software House Inc. Topsham, ME) to obtain fluorescence ratio measurements. For both flow cytometry and FRIM analysis, the calibration curves were obtained and sample pHi values determined from the fluorescence ratio values using Table Curve software (SPSS Inc., Chicago, Ill.).

NHE-1 = NHE-1 (Homo sapiens, UniProt P19634); settings: literature reference 19; cited from earlier work
KG-1a cells [3] = test: Intracellular pH of KG-1a cells incubated with HMA; assay type: cell-based, human; settings: 10^-4M HMA, 5h, n=4, without HMA 6.9±0.08 after 5h
Procedure: (§3) Leukaemic cell lines (KG-1a and CEM) were incubated for varying periods of time with 10^−4M HMA and pHi and apoptosis measured. For both cell lines, in the absence of HMA, pHi ranged from 7.43±0.1 at time zero to 6.9±0.08 after 5h of incubation. However, after 5h with HMA, the pHi had decreased to 5.6±0.07 (n=4) for KG-1a and 6.1±0.06 (n=4) for CEM cells. In the absence of HMA, the percentage of KG-1a and CEM cells undergoing apoptosis, measured by annexin-V, ranged from 2% to 9% for the duration of the experiment, whereas by 5h in the presence of HMA, the percentage of KG-1a or CEM cells undergoing apoptosis ranged from 70-80%. […]
as §2, with “Ill.). […]” for “Ill.).”

[4] = system: primary ALL patient leukaemic cells; test: Apoptosis (annexin-V and TUNEL) of fresh ALL patient leukaemic cells incubated with HMA; assay type: cell-based, human
Procedure: (§4) Intracellular pH was measured by both FRIM and flow cytometry, while apoptosis was measured by annexin-V and TUNEL. […] For this reason, pHi values for 1h, 3h and 5h were set at 5.0. After 1h, the proportion of cells incubated with HMA undergoing apoptosis was about 85% using annexin-V and about 60% using the TUNEL technique.
(§5) Two methods were used to determine if reduction in pHi induced apoptosis. The first used annexin-V conjugated to fluorescein isothiocyanate (FITC) (Pharmingen, San Diego, Calif.) to determine the translocation of phosphatidylserine from the inside to the outside of the plasma membrane. Cells were counter-stained with propidium iodide (PI) to determine the proportion of necrotic cells. Cell staining was performed according to the manufacturer's instructions. The second technique used terminal deoxynucleotidyl transferase (TdT)-mediated dUTP nick-end labeling (TUNEL) of fragmented DNA. Fluorochrome (FITC)-labelling of DNA (Boehringer Mannhein, Germany) was performed according to the manufacturer's instructions and measurements performed by flow cytometry.
The amiloride analogue, HMA (Sigma Chemicals, St. Louis, Mo.) was dissolved in dimethylsulphoxide (DMSO) and a stock solution (10^−3M) prepared in DMEM. Cells were incubated at concentrations ranging from 10^−7M to 10^−4M for varying periods of time specified in the results. After incubation, cells were washed and aliquoted according to the type of measurement (pHi or apoptosis) performed. Controls included cells not treated with HMA.

KG-1a cells [5] = test: RNA degradation in KG-1a cells by denaturing RNA gel electrophoresis; assay type: cell-based, human; settings: 10^-4M HMA
[6] = system: primary ALL patient leukaemic cells; test: Intracellular pH (FRIM and flow cytometry) of fresh ALL patient leukaemic cells incubated with HMA; assay type: cell-based, human; settings: 10^-4M HMA, 1h, 3h and 5h, values set at 5.0
Procedure: as §4
as §2, with “temperature. SNARF is excited at 488 nm and emits at 580 nm and 640 nm. The ratio of the emission wavelengths 640/580 was used (8) to estimate the pHi from a calibration curve. The calibration curve was performed using the nigericin clamp technique (21).” for “temperature.”, “Ill.). […]” for “Ill.).”

KG-1a cells [7] = test: Apoptosis (annexin-V) of KG-1a cells incubated with HMA; assay type: cell-based, human; settings: 10^-4M HMA, 5h, without HMA 2% to 9%
Procedure: (§6) Leukaemic cell lines (KG-1a and CEM) were incubated for varying periods of time with 10^−4M HMA and pHi and apoptosis measured. For both cell lines, in the absence of HMA, pHi ranged from 7.43±0.1 at time zero to 6.9±0.08 after 5h of incubation. However, after 5h with HMA, the pHi had decreased to 5.6±0.07 (n=4) for KG-1a and 6.1±0.06 (n=4) for CEM cells. In the absence of HMA, the percentage of KG-1a and CEM cells undergoing apoptosis, measured by annexin-V, ranged from 2% to 9% for the duration of the experiment, whereas by 5h in the presence of HMA, the percentage of KG-1a or CEM cells undergoing apoptosis ranged from 70-80%.
(§7) The following human leukemic cell lines were originally obtained from ATCC (Rockville, Md.): KG-1a (BM acute myelogenous leukemia), Jurkat (acute T-cell leukemia), Molt-4 (PB acute lymphoblastic leukemia), CEM (PB acute lymphoblastic leukemia), K562 (chronic myeloid leukemia), THP-1 (acute monocytic leukemia), Nalm-6 (B-cell leukemia). All cell lines were cultured in Dulbecco's Modified Eagles Medium (DMEM) containing 10% heat-inactivated fetal bovine serum (FBS). Only cells in log phase growth were used.
(§8) Two methods were used to determine if reduction in pHi induced apoptosis. […]

[8] = system: normal peripheral blood cells; assay type: cell-based, human
Procedure: (§9) Normal peripheral blood cells were incubated in the absence or presence of the NHE-1 inhibitor, 5-(N,N-hexamethylene)-amiloride (HMA), at concentrations ranging from 10^−7M to 10^−4M for up to 5h. Cells were then aliquoted so that pHi and apoptotic measurements could be performed. In these experiments, pHi was measured using both flow cytometry and fluorescence ratio imaging microscopy (FRIM). […] The proportion of necrotic cells measured by propidium iodide (PI) remained constant at about 5% in the absence or presence of HMA for each time point measured. […] It is interesting to note that both methods measured about 25% apoptotic cells when pHi was reduced to about 6.8. As shown in the next section, a pHi of 6.8 appears to be a critical value below which increased apoptosis occurs.
as §5, with “Fluorochrome (FITC)-labelling of DNA (Boehringer Mannhein, Germany) was performed according to the manufacturer's instructions and measurements performed by flow cytometry.” left out

CEM cells [9] = test: Apoptosis (annexin-V) of CEM cells incubated with HMA; assay type: cell-based, human; settings: 10^-4M HMA, 5h, without HMA 2% to 9%
Procedure: as §6, §7, §8

CEM cells [10] = test: Intracellular pH of CEM cells incubated with HMA; assay type: cell-based, human; settings: 10^-4M HMA, 5h, n=4, without HMA 6.9±0.08 after 5h
Procedure: as §3
as §2, with “Ill.). […]” for “Ill.).”

[11] = system: normal peripheral blood cells; test: Intracellular pH (flow cytometry and FRIM) of normal peripheral blood cells incubated with HMA; assay type: cell-based, human
Procedure: as §9, with “As shown in the next section, a pHi of 6.8 appears to be a critical value below which increased apoptosis occurs.” left out
as §2, with “Ill.). […]” for “Ill.).”

[12] = ALL patient cells, 10^-4M HMA, 1h

NHE-1, sequence (P19634 whole entry, species assumed): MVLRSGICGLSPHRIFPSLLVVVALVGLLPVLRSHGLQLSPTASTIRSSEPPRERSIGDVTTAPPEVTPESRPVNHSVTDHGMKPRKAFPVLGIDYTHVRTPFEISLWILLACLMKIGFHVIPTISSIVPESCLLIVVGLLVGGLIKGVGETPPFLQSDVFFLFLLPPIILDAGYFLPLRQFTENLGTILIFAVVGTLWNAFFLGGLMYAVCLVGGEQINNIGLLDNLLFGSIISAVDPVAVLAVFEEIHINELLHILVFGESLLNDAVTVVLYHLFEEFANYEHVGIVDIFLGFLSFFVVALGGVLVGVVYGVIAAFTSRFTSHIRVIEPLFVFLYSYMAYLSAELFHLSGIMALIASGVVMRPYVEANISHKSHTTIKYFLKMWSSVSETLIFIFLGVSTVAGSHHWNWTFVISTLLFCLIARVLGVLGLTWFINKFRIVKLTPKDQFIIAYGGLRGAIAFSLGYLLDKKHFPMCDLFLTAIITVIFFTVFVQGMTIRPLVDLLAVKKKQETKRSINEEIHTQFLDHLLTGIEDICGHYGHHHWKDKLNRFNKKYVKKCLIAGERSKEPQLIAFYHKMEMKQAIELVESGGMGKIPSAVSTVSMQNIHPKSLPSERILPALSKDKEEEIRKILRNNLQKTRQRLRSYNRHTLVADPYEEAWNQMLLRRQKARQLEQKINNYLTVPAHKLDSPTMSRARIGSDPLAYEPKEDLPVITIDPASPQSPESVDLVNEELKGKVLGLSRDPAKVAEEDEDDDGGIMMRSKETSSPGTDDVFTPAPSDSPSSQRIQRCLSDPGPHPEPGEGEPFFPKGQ

Structure (SMILES)	proportion of cells in S-phase [1]	pHi [2]	potency and specificity of NHE-1 inhibition relative to amiloride (NHE-1)	pHi (KG-1a cells [3])	proportion of cells undergoing apoptosis, TUNEL [4, 12]	proportion of cells undergoing apoptosis, annexin-V [4, 12]	apoptotic cells, both methods (annexin-V and TUNEL) ([4]; ALL patient cells, 10^-4M HMA, 5h)	sensitivity of primary ALL cells versus normal PB ([4]; differential effect of HMA between normal and acute lymphoblastic leukaemic cells)	time to induction of apoptosis ([4]; primary leukemic cells) [h]	cells either dead or undergoing apoptosis ([4]; primary leukemic cells, between 3 and 5 h of incubation)	onset of RNA degradation after addition (KG-1a cells [5])	time to total RNA degradation (KG-1a cells [5]) [h]	pHi measured by flow cytometry [6]	percentage of cells undergoing apoptosis, annexin-V (KG-1a cells [7])	proportion of apoptotic cells, time and concentration dependence ([8]; HMA 10^-7M to 10^-4M, up to 5h, annexin-V and TUNEL)	apoptotic cells ([8]; normal PB with HMA, both methods (annexin-V, TUNEL), when pHi reduced to about 6.8)	percentage of cells undergoing apoptosis, annexin-V (CEM cells [9])	pHi (CEM cells [10])	inhibition (decrease of pHi), time and concentration dependence ([11]; HMA 10^-7M to 10^-4M, up to 5h, flow cytometry and FRIM)	pHi reduced to ([11]; normal PB incubated with HMA, pHi at which about 25% apoptotic cells were measured)
CCCCCCCCCCCCCC(=O)O[C@@H]1[C@@H](C)[C@@]2(O)[C@@H](C=C(CO)C[C@]3(O)C(=O)C(C)=C[C@@H]23)[C@@H]2C(C)(C)[C@]12OC(C)=O [phorbol ester, phorbol-12-myristate-13-acetate]	8.7%±0.17%	7.32±0.043	–	–	–	–	–	–	–	–	–	–	–	–	–	–	–	–	–	–
CCN(c1nc(N)c(C(=O)N=C(N)N)nc1Cl)C(C)C [EIPA, 5-(N-ethyl-N-isopropyl) amiloride]	–	–	greater potency and specificity of NHE-1 inhibition than amiloride itself	–	–	–	–	–	–	–	–	–	–	–	–	–	–	–	–	–
NC(N)=NC(=O)c1nc(Cl)c(N2CCCCCC2)nc1N [HMA, 5-(N,N-hexamethylene)-amiloride]	–	–	greater potency and specificity of NHE-1 inhibition than amiloride itself	5.6±0.07	about 60%	about 85%	over 90%	greater sensitivity to HMA than normal PB	≤ 1	more than 90%	began to degrade between 30 min and 1h	≤ 3	too low to calibrate	70-80%	greatest proportion of apoptotic cells was found after 5h incubation with 10^−4M HMA	about 25%	70-80%	6.1±0.06	greatest inhibition occurred at 5h, using the highest HMA concentration	about 6.8
